Experimental data as given in patent US20250228879A1, “METHOD AND COMPOSITION FOR CONTROLLING ACNE USING RHAMNOLIPIDS” (Stepan Company, priority 2022, published 2025).
Marks after values point to notes of the source that are not given here.

Legend:
[1] = tested on: C. acnes; test: Labskin efficacy of rhamnolipids compared to salicylic acid and benzoyl peroxide (Example 5); format: cell-based, Cutibacterium acnes
Experimental: A study was conducted to compare the efficacy of the rhamnolipid mixture of the present technology with salicylic acid and benzoyl peroxide, two common over-the-counter anti-acne actives. The samples containing salicylic acid and benzoyl peroxide were additionally mixed using a tip sonicator to ensure complete dissolving or adequeate distribution of the active.
The skin analog substrate (Labskin) was prepared as described in Example 4. The C. acnes microorganism was cultured as described in Example 4, and each Labskin unit was inoculated as described in Example 4. The Labskin units were incubated at 37° C. for 24 hours, and after 24 hours, were treated with 11 microliters of control (dPBS), vehicle, or test item. All Labskin units were then incubated at 37° C. for 24 hours, after which biopsy samples of 8 mm in diameter were aseptically removed from the center of each Labskin unit and viable microbial numbers were assayed by recovery on appropriate culture medium.
Technical replicate counts obtained from selective solid media were averaged and used to calculate the colony forming units per square cm (CFU cm^−2). The enumeration of C. acnes for the control, vehicle, and test samples is shown graphically in FIG. 4.
The Log10 difference between the dPBS control and the vehicle and test samples was calculated as described in Example 4, and the Logio difference results are shown graphically in FIG. 5.

[2] = water at 25° C.; cited from earlier work
[3] = tested on: C. acnes ATCC 6919; test: Efficacy against C. acnes, aqueous test samples (Example 1); format: cell-based, Cutibacterium acnes; settings: Tested Conc. 0.3%, pH 2.7
Experimental: A study was conducted to determine the antimicrobial activity of a rhamnolipid mixture of the present technology alone against C. acnes, available from American Type Culture Collection (ATCC), Manassas, VA as ATCC 6919. Test samples were prepared by mixing 6.0% by weight of the rhamnolipid mixture into an aqueous base. Two samples were prepared, one sample using a rhamnolipid mixture processed by a non-solvent purification process, and the other sample using a rhamnolipid mixture processed by a solvent extraction process. The rhamnolipid mixtures in each sample comprise a weight ratio of mono-rhamnolipids to di-rhamnolipids in the range of 43:57 to 45:55.

[4] = tested on: Cutibacterium acnes (ATCC #6919); test: Time-dependency comparative testing, flow cytometry viability (Example 6); format: cell-based
Experimental: A study was conducted to compare the time-dependent efficacy of a rhamnolipid mixture of the present technology (Example 6 Composition), a commercially available rhamnolipid product (Comparative Composition), and salicylic acid against Cutibacterium acnes (ATCC #6919). […] The Comparative Composition comprised a mixture of rhamnolipids having a mono-rhamnolipid: di-rhamnolipid ratio of about 4:96 Test samples were prepared by diluting the rhamnolipids and the salicylic acid in sterile water. […] The concentrations of salicylic acid actives in the test samples were 0.03 wt %, 0.1 wt %, and 0.3 wt %. Prior to initiation of the study, samples were sufficiently pre-reduced to remove oxygen by using an indirect atmospheric sequestering of oxygen using hydrogen reaction over palladium catalyst. […] The sample aliquots were neutralized by dilution in an oxygen-reducing buffer containing the flow cytometry dyes, SYTO 9 and Propidium Iodide. Samples were analyzed using flow cytometry where cells were characterized by morphology and viability in comparison to a deionized water control.

[5] = 15 min Exposure, Tested Conc. 0.03%
[6] = 15 min Exposure, Tested Conc. 0.10%
[7] = 15 min Exposure, Tested Conc. 0.30%
[8] = 60 min Exposure, Tested Conc. 0.03%
[9] = 60 min Exposure, Tested Conc. 0.10%
[10] = 60 min Exposure, Tested Conc. 0.30%

## O=C(OOC(=O)c1ccccc1)c1ccccc1 [benzoyl peroxide]
[1]; benzoyl peroxide alone (5% and 2.5% w/w) in 20% w/w Tween in dPBS
  Log10 difference of C. acnes vs dPBS control (FIG. 5): significant decrease in the recovered population of C. acnes

## O=C(O)c1ccccc1O [Salicylic acid in DI Water, salicylic acid]
[2]
  solubility limit in water: 0.3% *
[3]; 1 h Exposure
  Reduction %: >99.997%
  Reduction Log10 CFU/mL: >4.6 Log10 CFU/mL
[3]; 24 h Exposure
  Reduction %: >99.995%
  Reduction Log10 CFU/mL: >4.3 Log10 CFU/mL
[4]; [5]
  Log10 cells/mL Reduction: 0.10 Log10 cells/mL
  Percent Reduction: 20.6%
[4]; [6]
  Log10 cells/mL Reduction: 0.10 Log10 cells/mL
  Percent Reduction: 20.6%
[4]; [7]
  Log10 cells/mL Reduction: 0.57 Log10 cells/mL
  Percent Reduction: 73.2%
[4]; [8]
  Log10 cells/mL Reduction: 0.35 Log10 cells/mL
  Percent Reduction: 55.2%
[4]; [9]
  Log10 cells/mL Reduction: 1.14 Log10 cells/mL
  Percent Reduction: 92.8%
[4]; [10]
  Log10 cells/mL Reduction: >2.30 Log10 cells/mL
  Percent Reduction: >99.5%
[1]; 0.5% w/w in 20% w/w Tween in dPBS, Labskin, 24 hours
  Enumeration of C. acnes compared with dPBS control (FIG. 4): slight decrease in the average amount of C. acnes
[1]; 0.5% w/w salicylic acid in 20% w/w Tween in dPBS
  Log10 difference of C. acnes vs dPBS control (FIG. 5): moderate decrease in C. acnes recovered
[1]; 2% w/w salicylic acid in 20% w/w Tween in dPBS
  Log10 difference of C. acnes vs dPBS control (FIG. 5): noticeable decrease in the recovered population of C. acnes
